Assay results: the supplement of paper PMC7108870

Legend:
[1] = system: HEK293sieSTAT3(Y640F); assay: drug sensitivity score (DSS), cytotoxicity CellTox Green (DSS (dimensionless)); higher = more cytotoxic; extreme values may be limits of the assay; conditions: 72 h; STAT3 variant: Y640F (constitutively active)
Procedure, shortened: (§1)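 Each value is one representative of two experiments in which HEK293 cells overexpressing wild-type or mutant STAT3 with a STAT3-dependent luciferase reporter were exposed to compounds at 5 concentrations (10-fold dilutions) for 72 hours at 37°C and 5% CO2. Readouts were CellTox Green fluorescence and then CellTiter-Glo luminescence, normalised to negative and positive control wells. The drug sensitivity score was based on the dose-response curve area and computed in Breeze.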

[2] = system: HEK293sieSTAT3(wt); assay: as above; conditions: 72 h; STAT3 variant: wild type
Procedure, shortened: as §1

[3] = system: HEK293sieSTAT3(Y640F); assay: drug sensitivity score (DSS), viability CellTiter-Glo (DSS (dimensionless)); higher = more growth inhibition; extreme values may be limits of the assay; conditions: 72 h; STAT3 variant: Y640F (constitutively active)
Procedure, shortened: as §1

[4] = system: HEK293sieSTAT3(wt); assay: as above; conditions: 72 h; STAT3 variant: wild type
Procedure, shortened: as §1

| Compound | drug sensitivity score [1] | drug sensitivity score [2] | drug sensitivity score [3] | drug sensitivity score [4] |
| --- | --- | --- | --- | --- |
| C=CC[C@@H]1/C=C(\C)C[C@H](C)C[C@H](OC)[C@H]2O[C@@](O)(C(=O)C(=O)N3CCCC[C@H]3C(=O)O[C@H](/C(C)=C/[C@@H]3CC[C@@H](O)[C@H](OC)C3)[C@H](C)[C@@H](O)CC1=O)[C@H](C)C[C@@H]2OC [Tacrolimus] (top concentration tested 10000 nM) | 0 | 0 | 0.22 | 0.73 |
| Cn1ncnc1[C@H]1c2n[nH]c(=O)c3cc(F)cc(c23)N[C@@H]1c1ccc(F)cc1 [Talazoparib] (top concentration tested 1000 nM) | 1.02 | 5.13 | 15.9 | 16 |
| C[C@@H]1CN(Cc2ccc(F)cc2)[C@@H](C)CN1C(=O)c1cc2c(C(=O)C(=O)N(C)C)cn(C)c2cc1Cl [Talmapimod] (top concentration tested 10000 nM) | 0 | 0 | 3.93 | 1.23 |
| COc1cc(Nc2ncc(F)c(Nc3ccc4c(n3)NC(=O)C(C)(C)O4)n2)cc(OC)c1OC [Tamatinib] (top concentration tested 10000 nM) | 5.91 | 8.52 | 2.55 | 3.72 |
| CC/C(=C(\c1ccccc1)c1ccc(OCCN(C)C)cc1)c1ccccc1 [Tamoxifen] (top concentration tested 10000 nM) | 2.88 | 8.77 | 4.47 | 5.42 |
| COc1cc2c(N3CCN(C(=O)Nc4ccc(OC(C)C)cc4)CC3)ncnc2cc1OCCCN1CCCCC1 [Tandutinib] (top concentration tested 1000 nM) | 0 | 0 | 0.33 | 1.99 |
| C=CCNC1=C2C[C@@H](C)C[C@H](OC)[C@H](O)[C@@H](C)/C=C(\C)[C@H](OC(N)=O)[C@@H](OC)/C=C\C=C(/C)C(=O)NC(=CC1=O)C2=O [Tanespimycin] (top concentration tested 10000 nM) | 7.34 | 12.8 | 22.1 | 22.6 |
| O[C@H]1CC[C@H](Nc2ncc3nc(Nc4c(F)cc(F)cc4F)n([C@H]4CCOC4)c3n2)CC1 [Tanzisertib] (top concentration tested 10000 nM) | 0 | 0 | 0 | 2 |
| C[C@@H](C(=O)O)c1ccc(-c2ccccc2)c(F)c1 [Tarenflurbil] (top concentration tested 10000 nM) | 0 | 0 | 0.09 | 0.56 |
| Cc1nc(-c2cn3c(n2)-c2ccc(-c4cnn(C(C)(C)C(N)=O)c4)cc2OCC3)n(C(C)C)n1 [Taselisib] (top concentration tested 1000 nM) | 0 | 0.54 | 4.03 | 5.32 |
| COc1cccc2c1c(O)c(C(=O)N(C)c1ccc(C(F)(F)F)cc1)c(=O)n2C [Tasquinimod] (top concentration tested 10000 nM) | 0 | 0 | 0 | 5.07 |
| CCN(c1cc(-c2ccc(CN3CCOCC3)cc2)cc(C(=O)NCc2c(C)cc(C)[nH]c2=O)c1C)C1CCOCC1 [Tazemetostat] (top concentration tested 10000 nM) | 0 | 0 | 0 | 1.85 |
| CNC(=O)c1cc(COc2nnc(Nc3ccc(Cl)cc3)c3ccoc23)ccn1 [Telatinib] (top concentration tested 10000 nM) | 0 | 2.32 | 2.07 | 0 |
| Cn1nnc2c(C(N)=O)ncn2c1=O [Temozolomide] (top concentration tested 100000 nM) | 0.32 | 0 | 0 | 0.36 |
| CO[C@H]1C[C@@H]2CC[C@@H](C)[C@@](O)(O2)C(=O)C(=O)N2CCCC[C@H]2C(=O)O[C@H]([C@H](C)C[C@@H]2CC[C@@H](OC(=O)C(C)(CO)CO)[C@H](OC)C2)CC(=O)[C@H](C)/C=C(\C)[C@@H](O)[C@@H](OC)C(=O)[C@H](C)C[C@H](C)/C=C/C=C/C=C/1C [Temsirolimus] (top concentration tested 100 nM) | 0 | 0 | 11.2 | 17.6 |
| COc1cc([C@@H]2c3cc4c(cc3[C@@H](O[C@@H]3O[C@@H]5CO[C@@H](c6cccs6)O[C@H]5[C@H](O)[C@H]3O)[C@H]3COC(=O)[C@H]23)OCO4)cc(OC)c1O [Teniposide] (top concentration tested 10000 nM) | 2.03 | 8.89 | 29 | 29.6 |
| O=C1CCC(N2C(=O)c3ccccc3C2=O)C(=O)N1 (stereo not drawn) [Thalidomide] (top concentration tested 10000 nM) | 0 | 0 | 4.79 | 2.38 |
